What follows are compounds tested against T1, KRAS G12C 1-169, his-tagged protein, GDP-loaded (Homo sapiens, UniProt P01116, G12C) (assay: Biochemical assay: covalent modification of KRAS G12C measured by mass spectrometry (RapidFire/TOF or Q-Exactive)). Settings: covalent binding to KRAS G12C; compounds of structure (I).
T1 construct: KRAS G12C 1-169, his-tagged protein, GDP-loaded
How it was run: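 Covalent adduct formation read by intact-mass spectrometry (TOF or Q Exactive Plus, charge envelopes deconvoluted into modified and unmodified species) after formic acid quench. Reactions contained 2 μM GDP-bound KRAS G12C 1-169 (his-tag) in Hepes/NaCl/MgCl2 buffer plus 10, 30 or 100 μM final compound, held 30 min, 2 h or 24 h at room temperature.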
In the case of `C=CC(=O)N1CCN(c2nc(OCCN(C)C)nc3c(F)c(-c4cc(O)cc5ccccc45)c(Cl)cc23)CC1` (atropisomer, axis not shown) [Example I-96, (R)-1-(4-(6-chloro-2-(2-(dimethylamino)ethoxy)-8-fluoro-7-(3-hydroxy-naphthalen-1-yl)quinazolin-4-yl)piperazin-1-yl)prop-2-en-1-one], the Binding % is reported as “+ (+ indicates binding activity up to 50%)”.
In the case of `C=CC(=O)N1CCN(c2nc(OC3CCN(C)CC3)nc3c(F)c(-c4cc(O)cc5ccccc45)c(Cl)cc23)CC1` [Example I-93, 1-(4-(6-chloro-8-fluoro-7-(3-hydroxy-naphthalen-1-yl)-2-(1-methyl-piperidin-4-yloxy)quinazolin-4-yl)piperazin-1-yl)prop-2-en-1-one], the Binding % is reported as “+++ (+++ indicates binding activity greater than 90%)”.
`C=CC(=O)N1CCN(c2nc(N3CC(N(CC)CC)C3)nc3c(F)c(-c4c(O)cccc4F)c(Cl)cc23)CC1` [Example I-131, 1-(4-(6-chloro-2-(3-(diethyl-amino)azetidin-1-yl)-8-fluoro-7-(2-fluoro-6-hydroxyphenyl)quinazolin-4-yl)piperazin-1-yl) prop-2-en-1-one] was tested, and the Binding % was “+++ (+++ indicates binding activity greater than 90%)”.
`C=CC(=O)N1CCN(c2nc(OCCN(CC)CC)nc3c(F)c(-c4c(C)ccc5[nH]ncc45)c(Cl)cc23)CC1` [Example I-130, 1-(4-(6-chloro-2-(2-(diethyl-amino)ethoxy)-8-fluoro-7-(5-methyl-1H-indazol-4-yl)quinazolin-4-yl)piperazin-1-yl) prop-2-en-1-one] was tested, and the Binding % was “+++ (+++ indicates binding activity greater than 90%)”.
`C=CC(=O)N1CCN(c2nc(OCCc3ccc(C)nc3)nc3c(F)c(-c4c(O)cccc4F)c(Cl)cc23)CC1` [Example I-111, 1-(4-(6-chloro-8-fluoro-7-(2-fluoro-6-hydroxyphenyl)-2-(2-(6-methyl-pyridin-3-yl)ethoxy)quinazolin-4-yl)piperazin-1-yl) prop-2-en-1-one] was tested, and the Binding % was “+ (+ indicates binding activity up to 50%)”.
With `C=CC(=O)N1CCN(c2nc(NCCN3CC(F)(F)C3)nc3c(F)c(-c4c(C)ccc5[nH]ncc45)c(Cl)cc23)CC1` [Example I-141, 1-(4-(6-chloro-2-(2-(3,3-difluoro-azetidin-1-yl)ethylamino)-8-fluoro-7-(5-methyl-1H-indazol-4-yl)quinazolin-4-yl)piperazin-1-yl) prop-2-en-1-one] the Binding % was “+++ (+++ indicates binding activity greater than 90%)”.
`C=CC(=O)N1CCN(c2c(C#N)c(N3CC(N(C)C)C3)nc3c(F)c(-c4c(O)cccc4F)c(Cl)cc23)CC1` [Example I-197, 4-(4-acryloyl-piperazin-1-yl)-6-chloro-2-(3-(dimethyl-amino)azetidin-1-yl)-8-fluoro-7-(2-fluoro-6-hydroxyphenyl) quinoline-3-carbonitrile] was tested, and the Binding % was “++ (++ indicates binding activity from 50 to 90%)”.
In the case of `C=CC(=O)N1CCN(c2nc(OCCN3CCOCC3)nc3c(F)c(-c4ccccc4C(F)(F)F)c(Cl)cc23)CC1` [Example I-48, 1-(4-(6-chloro-8-fluoro-2-(2-morpholino-ethoxy)-7-(2-(trifluoromethyl)phenyl)quinazolin-4-yl)piperazin-1-yl)prop-2-en-1-one], the Binding % is reported as “+++ (+++ indicates binding activity greater than 90%)”.
In the case of `C=CC(=O)N1CCN(c2nc(N3CC(N(C)C)C3)nc3c(F)c(-c4c(O)cccc4F)c(Cl)cc23)CC1` (atropisomer, axis not shown) [Example I-117, (R)-1-(4-(6-chloro-2-(3-(dimethylamino)azetidin-1-yl)-8-fluoro-7-(2-fluoro-6-hydroxyphenyl)quinazolin-4-yl)piperazin-1-yl) prop-2-en-1-one], the Binding % is reported as “+ (+ indicates binding activity up to 50%)”.
`C=CC(=O)N1CCN(c2nc(OCCN3CCOCC3)nc3c(F)c(-c4c(O)cccc4F)c(Cl)cc23)CC1` (atropisomer, axis not shown) [Example I-28, (R)-1-(4-(6-chloro-8-fluoro-7-(2-fluoro-6-hydroxyphenyl)-2-(2-morpholino-ethoxy)quinazolin-4-yl)piperazin-1-yl)prop-2-en-1-one] was tested, and the Binding % was “+ (+ indicates binding activity up to 50%)”.
`C=CC(=O)N1CCN(c2nc(OC3CCN(C)C3)nc3c(F)c(-c4c(O)cccc4F)c(Cl)cc23)CC1` (stereo not shown) [Example I-22, 1-(4-(6-chloro-8-fluoro-7-(2-fluoro-6-hydroxyphenyl)-2-(1-methyl-pyrrolidin-3-yloxy)quinazolin-4-yl)piperazin-1-yl)prop-2-en-1-one] was tested, and the Binding % was “++ (++ indicates binding activity from 50 to 90%)”.
In the case of `C=CC(=O)N1CCN(c2nc(OCCN3CCOCC3)nc3c(F)c(-c4cc(O)cc5ccccc45)c(Cl)cc23)CC1` (atropisomer, axis not shown) [Example I-52, (R)-1-(4-(6-chloro-8-fluoro-7-(3-hydroxy-naphthalen-1-yl)-2-(2-morpholino-ethoxy)quinazolin-4-yl)piperazin-1-yl)prop-2-en-1-one], the Binding % is reported as “+ (+ indicates binding activity up to 50%)”.
For `C=CC(=O)N1CCN(c2nc(OCC3OCCO3)nc3c(F)c(-c4c(O)cccc4F)c(Cl)cc23)CC1` [Example I-163, 1-(4-(2-((1,3-dioxolan-2-yl)methoxy)-6-chloro-8-fluoro-7-(2-fluoro-6-hydroxyphenyl)quinazolin-4-yl)piperazin-1-yl) prop-2-en-1-one], the Binding % was “+++ (+++ indicates binding activity greater than 90%)”.
With `C=CC(=O)N1CCN(c2nc(NC3CCN(C4CC4)CC3)nc3c(F)c(-c4c(O)cccc4F)c(Cl)cc23)CC1` (atropisomer, axis not shown) [Example I-79, (R)-1-(4-(6-chloro-2-(1-cyclopropyl-piperidin-4-ylamino)-8-fluoro-7-(2-fluoro-6-hydroxyphenyl)quinazolin-4-yl)piperazin-1-yl) prop-2-en-1-one] the Binding % was “+ (+ indicates binding activity up to 50%)”.
In the case of `C=CC(=O)N1CCN(c2nc(OCCN(CC)CC)nc3c(F)c(-c4c(O)cccc4F)c(Cl)cc23)CC1` [Example I-40, 1-(4-(6-chloro-2-(2-(diethyl-amino)ethoxy)-8-fluoro-7-(2-fluoro-6-hydroxyphenyl)quinazolin-4-yl)piperazin-1-yl) prop-2-en-1-one], the Binding % is reported as “+++ (+++ indicates binding activity greater than 90%)”.
`C=CC(=O)N1CCN(c2nc(N3CC(N4CC(F)(F)C4)C3)nc3c(F)c(-c4c(O)cccc4F)c(Cl)cc23)CC1` [Example I-179, 1-(4-(6-chloro-2-(3,3-difluoro-[1,3′-biazetidin]-1′-yl)-8-fluoro-7-(2-fluoro-6-hydroxyphenyl)quinazolin-4-yl)piperazin-1-yl) prop-2-en-1-one] was tested, and the Binding % was “+ (+ indicates binding activity up to 50%)”.
With `C=CC(=O)N1CCN(c2nc(NC3CCCN(CC(F)(F)F)C3)nc3c(F)c(-c4c(O)cccc4F)c(Cl)cc23)CC1` (stereo not shown) [Example I-133, 1-(4-(6-chloro-8-fluoro-7-(2-fluoro-6-hydroxyphenyl)-2-(1-(2,2,2-trifluoroethyl)piperidin-3-ylamino)quinazolin-4-yl)piperazin-1-yl) prop-2-en-1-one] the Binding % was “++ (++ indicates binding activity from 50 to 90%)”.
For `C=CC(=O)N1CCN(c2nc(OCCN3CC[C@H](OC)C3)nc3c(F)c(-c4c(O)cccc4F)c(Cl)cc23)CC1` [Example I-33, 1-(4-(6-chloro-8-fluoro-7-(2-fluoro-6-hydroxyphenyl)-2-(2-((S)-3-methoxy-pyrrolidin-1-yl)ethoxy)quinazolin-4-yl)piperazin-1-yl)prop-2-en-1-one], the Binding % was “+++ (+++ indicates binding activity greater than 90%)”.
`C=CC(=O)N1CCN(c2nc(N3CC4(COC4)C3)nc3c(F)c(-c4c(O)cccc4F)c(Cl)cc23)CC1` [Example I-148, 1-(4-(6-chloro-8-fluoro-7-(2-fluoro-6-hydroxyphenyl)-2-(2-oxa-6-azaspiro[3.3]heptan-6-yl)quinazolin-4-yl)piperazin-1-yl) prop-2-en-1-one] was tested, and the Binding % was “+++ (+++ indicates binding activity greater than 90%)”.

Same assay, conditions: covalent binding to KRAS G12C; compounds of structure (II)
With `C=CC(=O)Nc1cc(-c2ncnc3c(F)c(-c4c(O)cccc4F)c(Cl)cc23)ccn1` [II-12, N-(4-(6-chloro-8-fluoro-7-(2-fluoro-6-hydroxyphenyl)quinazolin-4-yl)pyridin-2-yl)acrylamide] the Binding % was “+ (+ indicates binding activity up to 50%)”.
For `C=CC(=O)N1CCC(Nc2ncnc3c(F)c(-c4c(O)cccc4F)c(Cl)cc23)C1` (stereo not shown) [II-9, 1-(3-((6-chloro-8-fluoro-7-(2-fluoro-6-hydroxyphenyl)quinazolin-4-yl)amino)pyrrolidin-1-yl)prop-2-en-1-one], the Binding % was “+ (+ indicates binding activity up to 50%)”.
`C=CC(=O)N1CCN(c2ncnc3c(F)c(-c4c(F)cccc4OCc4cncn4C)c(Cl)cc23)CC1` [II-6, 1-(4-(6-chloro-8-fluoro-7-(2-fluoro-6-((1-methyl-1H-imidazol-5-yl)methoxy)phenyl)quinazolin-4-yl)piperazin-1-yl)prop-2-en-1-one] was tested, and the Binding % was “++ (++ indicates binding activity greater than 50% and less than 75%)”.

Same assay, conditions: covalent binding to KRAS G12C; compounds of structure (III)
For `C=CC(=O)N1CCN(c2ncnc3c(F)c(-c4c(O)cccc4F)c(Cl)cc23)[C@@H](CC)C1` [III-32, 1-((3S)-4-(6-chloro-8-fluoro-7-(2-fluoro-6-hydroxy-phenyl)quinazolin-4-yl)-3-ethyl-piperazin-1-yl)prop-2-en-1-one], the Binding % was “++ (++ indicates activity from 50% to 90%)”.
`C=CC(=O)N1[C@H](C)CN(c2c(C#N)cnc3c(F)c(-c4c(O)cccc4F)c(Cl)cc23)C[C@@H]1C` [III-43] was tested, and the Binding % was “++ (++ indicates activity from 50% to 90%)”.
`C=CC(=O)N1C[C@@H](C)N(c2ncnc3c(F)c(-c4cc(O)cc5ccccc45)c(Cl)cc23)[C@@H](C)C1` [III-41, 1-((3S,5R)-4-(6-chloro-8-fluoro-7-(3-hydroxy-naphthalen-1-yl)quinazolin-4-yl)-3,5-dimethyl-piperazin-1-yl)prop-2-en-1-one] was tested, and the Binding % was “++ (++ indicates activity from 50% to 90%)”.

Source: patent US10829458B2 (Araxes Pharma LLC, priority 2015, dated 2020)
